Where a name gives a salt, the structure may show the parent alone. Read-outs that look alike come from different tables or passages of the source.
Key:
Jak2 (a.a. 828-1132) = target: T1, Jak2 (a.a. 828-1132) (Homo sapiens, UniProt O60674); test: In vitro JAK kinase assay (HTRF, phosphorylation of biotinylated peptide), JAK2; type: biochemical
T1 construct: Jak2 (a.a. 828-1132); His tag (N); made in house; host or cells: insect cells (baculovirus)
Outline: (§1)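 His-tagged catalytic domains expressed in baculovirus/insect cells; biotinylated peptide (500 nM) phosphorylation in 50 mM Tris pH 7.8, 100 mM NaCl, 5 mM DTT, 0.01% BSA, 1 h room temperature. ATP at Km (JAK1 90 μM, JAK2 30 μM) or 1 mM. EDTA stop, Eu-Py20/SA-APC HTRF read; IC50.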

[1] = target: T2, human JAK1 (a.a. 837-1142) (Homo sapiens, UniProt P23458); test: In vitro JAK kinase assay (HTRF, phosphorylation of biotinylated peptide), JAK1; type: biochemical
T2 construct: The catalytic domains of human JAK1 (a.a. 837-1142); His tag (N); made in house; host or cells: insect cells (baculovirus)
T2 sequence (P23458 849-1154): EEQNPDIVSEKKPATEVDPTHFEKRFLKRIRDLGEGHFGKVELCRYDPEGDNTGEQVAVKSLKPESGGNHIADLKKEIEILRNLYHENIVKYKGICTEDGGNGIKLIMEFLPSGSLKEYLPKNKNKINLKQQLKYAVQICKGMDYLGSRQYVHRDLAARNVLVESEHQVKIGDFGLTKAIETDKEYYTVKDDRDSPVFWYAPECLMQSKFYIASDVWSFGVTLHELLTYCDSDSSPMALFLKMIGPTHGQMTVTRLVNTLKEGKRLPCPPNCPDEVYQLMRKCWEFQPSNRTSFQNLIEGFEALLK
Outline: as §1

[2] = 1 mM ATP, Examples 92-162, read-out: JAK2 IC50 (nM) @ 1 mM ATP
[3] = 1 mM ATP, Examples 92-162, read-out: JAK1 IC50 (nM) @ 1 mM ATP
[4] = 1 mM ATP, Examples 12-91, read-out: JAK2 IC50 (nM) @ 1 mM ATP
[5] = 1 mM ATP, Examples 12-91, read-out: JAK1 IC50 (nM) @ 1 mM ATP

T1 sequence (O60674 828-1132): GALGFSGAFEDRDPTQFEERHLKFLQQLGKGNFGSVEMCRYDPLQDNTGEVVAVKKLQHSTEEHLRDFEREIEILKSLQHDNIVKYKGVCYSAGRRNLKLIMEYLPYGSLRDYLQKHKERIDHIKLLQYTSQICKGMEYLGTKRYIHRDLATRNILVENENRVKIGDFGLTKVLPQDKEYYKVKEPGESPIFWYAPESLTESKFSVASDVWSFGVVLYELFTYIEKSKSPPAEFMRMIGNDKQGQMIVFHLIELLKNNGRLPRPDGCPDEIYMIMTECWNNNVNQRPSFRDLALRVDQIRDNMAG

Compound	IC50 (Jak2 (a.a. 828-1132); [2])	IC50 [1, 3]	IC50 (Jak2 (a.a. 828-1132); [4])	IC50 [1, 5]	other results
COc1ccc(OC)c(S(=O)(=O)N2CCCN(CC(CC#N)n3cc(-c4ncnc5[nH]ccc45)cn3)CC2)c1 (centres unmarked) [Example 111, 4-{4-[(2,5-dimethoxyphenyl)sulfonyl]-1,4-diazepan-1-yl}-3-[4-(7H-pyrrolo[2,3-d]pyrimidin-4-yl)-1H-pyrazol-1-yl]butanenitrile]	50 to 100 nM	20 to 50 nM			
COc1ccc(Br)cc1S(=O)(=O)N1CCCN(CC(CC#N)n2cc(-c3ncnc4[nH]ccc34)cn2)CC1 (centres unmarked) [Example 114, 4-{4-[(5-bromo-2-methoxyphenyl)sulfonyl]-1,4-diazepan-1-yl}-3-[4-(7H-pyrrolo[2,3-d]pyrimidin-4-yl)-1H-pyrazol-1-yl]butanenitrile]	50 to 100 nM	20 to 50 nM			
CCC(CN1CCN(C(=O)c2ccc(Cl)cc2F)CC1)n1cc(-c2ncnc3[nH]ccc23)cn1 (centres unmarked) [Example 124, (4-(2-(4-(7H-pyrrolo[2,3-d]pyrimidin-4-yl)-1H-pyrazol-1-yl)butyl)piperazin-1-yl)(4-chloro-2-fluorophenyl)methanone]	20 to 50 nM	< 20 nM			
N#CCC(CN1CCN(C(=O)c2cccc(OC(F)(F)F)c2F)CC1)n1cc(-c2ncnc3[nH]ccc23)cn1 (centres unmarked) [Example 51, 3-(4-(7H-pyrrolo[2,3-d]pyrimidin-4-yl)1H-pyrazol-1-yl)-4-(4-(2-fluoro-3-(trifluoromethoxy)benzoyl)piperazin-1-yl)butanenitrile]			10 to 50 nM	10 to 50 nM	
N#CCC(CN1CCN(S(=O)(=O)c2cccnc2)CC1)n1cc(-c2ncnc3[nH]ccc23)cn1 (centres unmarked) [Example 65, 3-(4-(7H-pyrrolo[2,3-d]pyrimidin-4-yl)-1H-pyrazol-1-yl)-4-(4-(pyridin-3-ylsulfonyl)piperazin-1-yl)butanenitrile]			10 to 50 nM	< 10 nM	
CC(CN1CCN(C(=O)c2ccc(F)cc2F)CC1)n1cc(-c2ncnc3[nH]ccc23)cn1 (centres unmarked) [Example 95, 4-(1-{2-[4-(2,4-difluorobenzoyl)piperazin-1-yl]-1-methylethyl}-1H-pyrazol-4-yl)-7H-pyrrolo[2,3-d]pyrimidine bis(trifluoroacetate)]	> 100 nM	20 to 50 nM			
COc1ccc(C(=O)N2CCN(CC(CC#N)n3cc(-c4ncnc5[nH]ccc45)cn3)CC2)cc1F (centres unmarked) [Example 18, 4-[4-(3-fluoro-4-methoxybenzoyl)piperazin-1-yl]-3-[4-(7H-pyrrolo[2,3-d]pyrimidin-4-yl)-1H-pyrazol-1-yl]butanenitrile phosphate Salt]			50 to 100 nM	10 to 50 nM	
N#CCC(CN1CCN(C(=O)Nc2c(F)cccc2F)CC1)n1cc(-c2ncnc3[nH]ccc23)cn1 (centres unmarked) [Example 69, 4-(2-(4-(7H-pyrrolo[2,3-d]pyrimidin-4-yl)-1H-pyrazol-1-yl)-3-cyanopropyl)-N-(2,6-difluorophenyl)piperazine-1-carboxamide]			10 to 50 nM	< 10 nM	
COc1cc(C(=O)N2CCN(CC(CC#N)n3cc(-c4ncnc5[nH]ccc45)cn3)CC2)ccc1F (centres unmarked) [Example 43, 3-(4-(7H-pyrrolo[2,3-d]pyrimidin-4-yl)-1H-pyrazol-1-yl)-4-(4-(4-fluoro-3-methoxybenzoyl)piperazin-1-yl)butanenitrile]			10 to 50 nM	< 10 nM	
Cc1c(Nc2cccc(F)c2)ncnc1N1CCC(C(CC#N)n2cc(-c3ncnc4[nH]ccc34)cn2)CC1 (centres unmarked) [Example 148, 3-(4-(7H-pyrrolo[2,3-d]pyrimidin-4-yl)-1H-pyrazol-1-yl)-3-(1-(6-(3-fluorophenylamino)-5-methylpyrimidin-4-yl)piperidin-4-yl)propanenitrile]	50 to 100 nM	< 20 nM			
N#CCC(CC1CCN(S(=O)(=O)C2CC2)CC1)n1cc(-c2ncnc3[nH]ccc23)cn1 (centres unmarked) [Example 5, 4-[1-(cyclopropylsulfonyl)piperidin-4-yl]-3-[4-(7H-pyrrolo[2,3-d]pyrimidin-4-yl)-1H-pyrazol-1-yl]butanenitrile]					IC50 (Jak2 (a.a. 828-1132); 1 mM ATP, Examples 1-11, read-out: IC50 (nM) @ 1 mM ATP JAK2): < 10 nM; IC50 (Jak2 (a.a. 828-1132); Km ATP (30 μM for Jak2), Examples 1-11, read-out: IC50 (nM) @ Km ATP JAK2): < 10 nM; IC50 ([1]; Km ATP (90 μM for Jak1), Examples 1-11, read-out: IC50 (nM) @ Km ATP JAK1): < 10 nM
COCC1CN(C(=O)c2ccc(C#N)cc2F)CCN1CC(CC#N)n1cc(-c2ncnc3[nH]ccc23)cn1 (single isomer, unassigned) [Example 157—peak 2, 4-{[4-{3-cyano-2-[4-(7H-pyrrolo[2,3-d]pyrimidin-4-yl)-1H-pyrazol-1-yl]propyl}-3-(methoxymethyl)piperazin-1-yl]carbonyl}-3-fluorobenzonitrile]	> 100 nM	< 20 nM			
N#CCC(CN1CCN(C(=O)c2ccc(C#N)cc2F)C(CO)C1)n1cc(-c2ncnc3[nH]ccc23)cn1 (mixture of isomers) [Example 160, 4-{[4-{3-cyano-2-[4-(7H-pyrrolo[2,3-d]pyrimidin-4-yl)-1H-pyrazol-1-yl]propyl}-2-(hydroxymethyl)piperazin-1-yl]carbonyl}-3-fluorobenzonitrile]	> 100 nM	20 to 50 nM			
N#CCC(CN1CCN(C(=O)c2ccc(C#N)cc2F)CC1)n1ccc(-c2ncnc3[nH]ccc23)c1 (single isomer, unassigned) [Example 13, 4-[(4-{3-cyano-2-[3-(7H-pyrrolo[2,3-d]pyrimidin-4-yl)-1H-pyrrol-1-yl]propyl}piperazin-1-yl)carbonyl]-3-fluorobenzonitrile trifluoroacetate Salt]			50 to 100 nM	< 10 nM	
COCC1CN(C(=O)c2ccc(C#N)cc2F)CCN1CC(CC#N)n1cc(-c2ncnc3[nH]ccc23)cn1 (single isomer, unassigned) [Example 157—peak 3, 4-{[4-{3-cyano-2-[4-(7H-pyrrolo[2,3-d]pyrimidin-4-yl)-1H-pyrazol-1-yl]propyl}-3-(methoxymethyl)piperazin-1-yl]carbonyl}-3-fluorobenzonitrile]	> 100 nM	> 100 nM			
N#CCC(CN1CCN(C(=O)c2ccc(F)cn2)CC1)n1cc(-c2ncnc3[nH]ccc23)cn1 (centres unmarked) [Example 21, 4-{4-[(5-fluoropyridin-2-yl)carbonyl]piperazin-1-yl}-3-[4-(7H-pyrrolo[2,3-d]pyrimidin-4-yl)-1H-pyrazol-1-yl]butanenitrile trifluoroacetate Salt]			50 to 100 nM	10 to 50 nM	
COc1ccc(Cl)cc1S(=O)(=O)N1CCCN(CC(CC#N)n2cc(-c3ncnc4[nH]ccc34)cn2)CC1 (centres unmarked) [Example 112]	20 to 50 nM	< 20 nM			
N#CCC(CN1CCCN(C(=O)c2ccc(Cl)cc2)CC1)n1cc(-c2ncnc3[nH]ccc23)cn1 (centres unmarked) [Example 107, 4-[4-(4-chlorobenzoyl)-1,4-diazepan-1-yl]-3-[4-(7H-pyrrolo[2,3-d]pyrimidin-4-yl)-1H-pyrazol-1-yl]butanenitrile]	> 100 nM	20 to 50 nM			
N#CCC(CN1CCN(C(=O)c2ccc(C#N)cc2F)CC1CO)n1cc(-c2ncnc3[nH]ccc23)cn1 (single isomer, unassigned) [156—peak 1, 4-{[4-{3-cyano-2-[4-(7H-pyrrolo[2,3-d]pyrimidin-4-yl)-1H-pyrazol-1-yl]propyl}-3-(hydroxymethyl)piperazin-1-yl]carbonyl}-3-fluorobenzonitrile trifluoroacetate Salt]	> 100 nM	< 20 nM			
N#CCC(CN1CCN(C(=O)c2ccc(O)cc2F)CC1)n1cc(-c2ncnc3[nH]ccc23)cn1 (centres unmarked) [Example 31, 3-(4-(7H-pyrrolo[2,3-d]pyrimidin-4-yl)-1H-pyrazol-1-yl)-4-(4-(2-fluoro-4-hydroxybenzoyl)piperazin-1-yl)butanenitrile trifluoroacetate salt]			10 to 50 nM	< 10 nM	
